# Test results as given in US9738690B2, “Polyoma virus JC peptides and proteins in vaccination and diagnostic applications” (UNIVERSITAET ZUERICH, priority 2011, dated 2017).
# Entries after “also recorded” stand apart in the source; their conditions may differ. Like-named read-outs stand apart in the source and are kept apart here.
# How the values were obtained:
# [1] = system: brain-derived PHA-expanded cells; test: Determination of precursor frequency by limiting dilution; assay type: cell-based, human; settings: fraction of T cells responding
# Procedure: Frequencies of VP1/VLP-specific cells were determined by limiting dilution. 20, 200, 2.000 or 20.000 brain-derived PHA-expanded cells were seeded in quadruplicates in 96-well U-botton microtiter plates with 1×10^5 autologous irradiated PBMC with or without VP1/VLP protein. After 72 hours, proliferation was measured by methyl-^3H-thymidine incorporation. Frequencies were calculated as previously described (Taswell, 1981). Observed data were: r, the number of negatively responding cultures or wells of each dose i; n, the total number of wells per dose i, and X, the number of cells in the dose i. Calculated data was: pi=ri/ni, the fraction of negatively responding cultures of each dose i. The frequency was calculated using the following formula: f=−(ln pi)/λi.
# [2] = system: brain-derived VP1/VLP-specific T cell clones; test: Fine specificity of brain-derived VP1/VLP-specific T cell clones (TCC); assay type: cell-based, human; settings: for recognition by brain-derived VP1-specific TCC: each TCC tested against 64 15-mer peptides spanning VP1
# Procedure: 2.5×10^4 brain-derived PHA-expanded cells were seeded in 96-well U-botton microtiter plates with 1×10^5 autologous irradiated PBMC with or without VP1/VLP protein. After 48 hours of culture, plates were split into mother and daughter plates. Proliferation was measured in daughter plates by methyl-^3H-thymidine incorporation. VP1/VLP-responsive cultures were identified in mother plates, and IL-2 was added every 3-4 days until day 12. T cell clones (TCC) were established from positive cultures by seeding cells from VP1/VLP-responsive wells under limiting dilution conditions at 0.3 and 1 cell/well in 96-well U-botton microtiter plates, and addition of 2×10^5 allogeneic, irradiated PBMC and 1 μg/ml of PHA-L in complete RPMI. After 24 h, 20 U/ml of human recombinant IL-2 were added. VP1/VLP specificity was then confirmed seeding 2.5×10^4 cells from growing colonies with autologous irradiated PBMC with or without VP1/VLP protein for 72 h. Specific cultures were restimulated every two weeks with 1 μg/ml PHA-L, 20 U/ml hrIL-2 and allogeneic irradiated PBMC, and hrIL2 was added every 3-4 days.
# Prior data had shown that CD4+ differentiate into certain T helper phenotypes such as Th1 cells (IFN-gamma producers), Th17 cells secreting IL-17, Th2 cells expressing the signature cytokine IL-4, or T regulatory cells based on the expression of certain transcription factors (Zhu et al., 2010). The differentiation into Th1 or Th2 cells is considered mutually exclusive and controlled by the transcription factors T-bet (Th1) and Gata-3 (Th2) (Zhu et al., 2010). […] VP1/VLP-specific TCC were generated as described in material and methods. Initially 21 VP1/VLP-specific single cell-derived cultures were generated by limiting dilution and characterized for TCRV beta expression, functional phenotype and fine specificity (Table 2). This characterization allowed the identification of 11 presumed different TCC. The number of single cell growing cultures corresponding to each TCC gives an idea about the frequency of each TCC in the brain infiltrate (FIG. 3a). TCC-4 was most abundant and represented by 5 colonies emerging from single growing wells, followed by TCC-2 with 3 single cell growing cultures, TCC-1, -8, -9 and -10 with 2 single cell growing cultures and finally TCC-3, -5, -6, -7 and -11 with only 1 single cell growing culture. […] Taking into account both the number of different TCC recognizing a specific peptide and the frequency of each TCC in the brain infiltrate the immunodominant peptides recognized by VP1 specific brain infiltrating TCC were VP134, VP174, VP1319 and VP1335 confirming the fine specificity obtained using the brain-derived bulk cell population (FIG. 3c). […] For three of the immunodominant peptides (VP134, VP1319 and VP1335) we found TCC with both phenotypes. The T helper phenotype of Th1-2 and Th1 TCC was confirmed my measuring IL-4 and IFN-gamma protein secretion by ELISA and by determining the expression of mRNAs of the transcription factors Gata3 and T-bet. Th1-2 TCC (n=5) secreted IL-4 in addition to IFN-gamma, while IL-4 secretion was barely detectable in Th1 TCC (n=6) (FIG. 6c). Cytokine secretion profiles were not due to stimulation with PHA, since the same stable patterns were observed after specific stimulation with VP1/VLP protein by intracellular cytokine staining or ELISA measurements from culture supernatants. Transcription factor expression confirmed the phenotype of the TCC. […]
# [3] = system: brain-derived PHA-expanded cells; assay type: cell-based, human
# [4] = system: CSF-derived PHA-expanded cells; assay type: cell-based, human
# [5] = system: unmanipulated PBMC; assay type: cell-based, human
# [6] = system: peripheral blood-derived PHA-expanded cells; assay type: cell-based, human
# [7] = system: JCV; test: Individual healing attempt: therapeutic vaccination of PML patients with VP1, imiquimod and IL-7; assay type: in vivo, human; settings: patient with idiopathic CD4+ lymphopenia and PML, s.c. VP1 + dermal imiquimod + IL-7
# Procedure: An individual healing attempt was performed in a patient with idiopathic CD4+ lymphopenia, a rare constitutive immunodeficiency, who developed PML (referred to as “patient Hamburg” in FIG. 11). The patient had been healthy, i.e. not experienced unusual or frequent infections, throughout their life, and in February 2010 was hospitalized with signs of an encephalitis of unknown origin. They were thoroughly worked up, and a diagnosis of suspected EBV-related encephalitis was made. Following transient improvement during antiviral therapy, they deteriorated further albeit slowly. […] In parallel, the inventors found a low CD4+ T cell count (around 300/microliter) as well as a CD4+/CD8+ ratio of 0.5 or less, which are both consistent with the diagnosis of idiopathic CD4+ lymphopenia. In addition, in vitro experiments in the laboratory documented an absent T cell response to JCV virus VP1 in peripheral blood mononuclear cells and an almost complete absence of naïve CD4+ T cells. Following these observations, the inventors reasoned that the patient probably had developed PML based on a pre-existing and probably genetically determined low CD4+ number, which became further accentuated by entirely physiological immune involution, which sets in and increases above 50 years of age.
# The vaccination approach in the above patient included the following steps (for timing of vaccinations and tests see scheme below): Subcutaneous injection with the entire recombinant major capsid protein VP1 (provided by the Life Science Inkubator, Bonn) in combination with a dermally applied TLR7 agonist (imiqimod, Aldara; commercially available) and i.v. recombinant IL-7 (Cytheris). The VP1 protein was administered in the form of virus-like particles (VLP), as the recombinantly expressed VP1 protein associated to such particles under the conditions used herein.
# Another individual healing attempt was performed in a patient with breast cancer who received chemotherapy and developed acute myeloid leukaemia (AML) as a side effect of the chemotherapy. The patient then received an autologous and allogeneic hematopoietic stem cell transplant as treatment of the AML and subsequently developed acute graft-versus-host disease (grade IV). […] This case is referred to as “patient Zurich” in FIG. 11. Both patients were treated by recombinant IL-7 (s.c.). 2 days later, the first dose of VP1 (s.c. 1 mg, imiquimod cream on the skin) was administered. 2 days after the first dose of VP1, the second dose of rIL-7 was given.
# On day 12 after the first IL-7 dose, the patients received a second vaccination with VP1 s.c. plus imiquimod, and in this case simultaneously rIL-7. At week 6, a third dose of VP1/imiquimod and a fourth dose of rIL-7 were administered. […] A stimulation index of >2 is considered a positive response.
# [8] = system: JCV; settings: cited from earlier work
# [9] = system: VP1-specific T-cells; test: Flow cytometry characterization of VP1-specific T cells of the vaccinated patient; assay type: cell-based, human
# [10] = system: peripheral blood mononuclear cells (PBMC); test: 3H-thymidine incorporation assay of patient PBMC with VP1; assay type: cell-based, human
# [11] = recombinant IL-7 together with antiviral drugs, case of CD4+ lymphopenia; cited from earlier work
molecule,measurement,setting,value
4: 15-mer JCV Agno peptide starting at amino acid 25; likely SEQ ID NO 1 (image row of Table 1) (AQRILIFLLEFLLDF; JC virus) [Peptide 4],precursor frequency of peptide-specific T cells,[1],1/14492
20: 15-mer VP1 peptide starting at amino acid 34; likely SEQ ID NO 2 (image row of Table 1) (VDSITEVECFLTPEM; JC virus) [Peptide 20],immunodominance among VP1 specific brain infiltrating TCC,[2]; by number of TCC recognizing the peptide and frequency of each TCC,immunodominant
same,recognition by brain-derived VP1-specific TCC,[2],recognized by TCC-1 and -2
same,"stimulation index (SI), individual JCV peptides","[3]; brain-derived PHA-expanded cells, individual peptides at 10 μM, 72 hours, listed as VP134",strongest response
23: 15-mer VP1 peptide starting at amino acid 54; likely SEQ ID NO 3 (image row of Table 1) [Peptide 23],recognition by brain-derived VP1-specific TCC,[2],recognized by TCC-3
"Tetanus toxoid [TTx, reference compound]",stimulation index (SI),[4],14
same,proliferative response,[5],significantly stronger response
same,stimulation index (SI),[3],no response
same,stimulation index (SI),[6],6.5
VP1/VLP: recombinant JCV major capsid protein VP1 forming virus-like particles; VP1 and VLP used interchangeably,CSF cell counts after vaccination,[7],slightly elevated CSF cell counts
same,JCV viral load after vaccination,[7],0
same,brain MRI imaging after vaccination,[7]; listed as VP1,slight contrast enhancement around the PML lesions
same,clinical course after vaccination,[7]; listed as VP1,clinical improvement with slight delay; also recorded: clinically improving
same,immune response after vaccination with Freund's Complete Adjuvant (FCA),[8]; with FCA,induces an immune response
same,immune response after vaccination without adjuvant,[8]; without adjuvant,not immunogenic
same,stimulation index (SI),"[4]; CSF-derived PHA-expanded cells, VP1/VLP 2 μg/ml, TTx 5 μg/ml, 72 hours",7
same,stimulation index (SI),"[3]; brain-derived PHA-expanded T cells, VP1/VLP 2 μg/ml, TTx 5 μg/ml, 72 hours",> 600
same,cell type proliferating after VP1 stimulus,[9]; 6 weeks after immunization,Only CD4+ cells proliferate
same,cytokine expression of CD4+ T cells after VP1 stimulation,"[9]; antigen day 0, restimulated day 6, intracellular cytokine staining, FACS",produce IFN-gamma after VP1 stimulation
same,"immune response against JCV after vaccination (stimulation index, >2 positive)","[10]; patient Hamburg and patient Zurich, PBMC 1×10e5 cells/well with VP1/VLP, 7 days, VP1 s.c. 1 mg + imiquimod + rIL-7",positive immune response against JCV
same,T cell response to JCV VP1 in PBMC before vaccination,"[10]; patient with idiopathic CD4+ lymphopenia and PML, before vaccination",absent
same,in vitro proliferative response against JCV VP1 after vaccination,"[10]; patient with idiopathic CD4+ lymphopenia and PML, s.c. VP1 + dermal imiquimod + IL-7",in vitro proliferative response against JCV VP1 after only two vaccinations
same,stimulation index (SI),"[6]; PHA-expanded PBMC, VP1/VLP 2 μg/ml, TTx 5 μg/ml, 72 hours",negative
"VP191: 15-mer VP1 peptide starting at amino acid 91; likely peptide 31, SEQ ID NO 11 (LNEDLTCGNILMWEA; JC virus)",recognition by brain-derived VP1-specific TCC,[2],recognized by TCC-5
"VP1143: 15-mer VP1 peptide starting at amino acid 143; likely peptide 43, SEQ ID NO 23 (HFFSVGGEALELQGV; JC virus)",recognition by brain-derived VP1-specific TCC,[2],recognized by TCC-6
"recombinant IL-7: recombinant IL-7 (Cytheris) (protein, UniProt P13232 26-177, looked up) Interleukin-7: DCDIEGKDGKQYESVLMVSIDQLLDSMKEIGSNCLNNEFNFFKRHICDANKEGMFLFRAARKLRQFLKMNSTGDFDLHLLKVSEGTTILLNCTGQVKGRKPAALGEAQPTKSLEENKSLKEQKKLNDLCFLKRLLQEIKTCWNKILMGTKEH",clinical outcome,[11],substantial improvement
